Assay results as given in patent US7025067B2, “Activated charcoal filter for effectively reducing p-benzosemiquinone from the mainstream cigarette smoke” (Council of Scientific and Industrial Research, priority 2001, dated 2006).
Where two headings read alike, the source gives them in different places.

## p-benzosemiquinone [p-BSQ]
Aqueous solution at pH 7.4
  half-life of p-BSQ: about 1.5 hours
Solid state at the room temperature
  half-life of p-BSQ: 48 h
